# Measurements from patent publication US7560473B2 (Institute of Pharmacology and Toxicology Academy of …, priority 2001, dated 2009).
# Assays:
# [1] = test system: spontaneously hypertensive rats; experiment: Acute antihypertensive effects in conscious spontaneously hypertensive rats; type: in vivo; conditions: po mg/kg: compound 1 3, pinacidil 3, nifedipine 10, bisoprolol 60, captopril 40, means ± SD, 9-13 rats; for heart rates at 1 h / heart rates at 3 h / heart rates at 5 h / heart rates at 9 h / heart rates at 12 h / heart rates at 24 h / heart rates base value: in bpm (unit assumed); for SBP base value / heart rates base value: base value before administration
# Source text: Biological activity experiment 2. The acute antihypertensive effects of compound 1 in conscious spontaneously hypertensive rats.
# The methods of biological activity experiment 2 were described by Long Chao-Liang et al: Long Chao-Liang, Wang Hai, Xiao Wen-Bin. Effects of pinacidil on, hypertensive vascular remodeling. Chin J Pharmacol Toxicol 1997; 11(1):42-46.
# [2] = test system: rats anesthetized with pentobarbital sodium; experiment: Effects on blood pressure, heart rate, cardiac contraction and dilation in rats anesthetized with pentobarbital sodium; type: in vivo, Wistar rats; design: unit not given here; conditions: change after injection through femoral vein, '+' = increase, all others = decrease; for MBP: mean blood pressure: n = 3~5, doses mg/kg: 2, 8, 12: 10, 3-7, 9-11, 40-44: 5; for DBP: diastolic blood pressure / HR: heart rate / LVSP: left ventricular systolic pressure / SBP: systolic blood pressure / Vpm: the physiological velocity of contractile element shorting / −dp/dtmax: the maximal rate of the decrease of left ventricular pressure: mean, n = 3~5, doses mg/kg: 2, 8, 12: 10, 3-7, 9-11, 40-44: 5
# Procedure: Biological activity experiment 1. The effects of 16 compounds represented by formula I on blood pressure, heart rate, cardiac contraction and dilation in rats anesthetized with pentobarbital sodium.
# The methods of biological activity experiment 1 were as follows: Male Wistar rats, weighing 280±30 g were purchased from the experimental animal center of Academy of Military Medical Sciences. Rats were anesthetized with pentobarbital sodium (45 mg/kg) by peritoneal injection. A PE50 polyethylene catheter was inserted into the left ventricle through right carotid artery for cardiac function measurement with a pressure energe exchanger, wherein the signal is put into a SMUP-PC biosignal processing system. Cardiac functional parameters such as HR, LVSP, +dp/dtmax, −dp/dtmax and Vpm were recorded. Another two PE50 polyethylene catheters were inserted into the right femoral artery and vein respectively for blood pressure measurement wherein the artery cathether was linked to a four-channel physiology recorder (RM-6000) through a MPU-0.5A Type pressure energe exchanger, which recorded SBP, DBP and MBP, while the vein catheter was used for compound administration. The methods were described by Liu Wei et al: Liu Wei, Wang Hai, Xiao Wen-Bin. […] Bull Acad Mil Med Sci 1996;20(4):245˜248.
# [3] = test system: rats anesthetized with pentobarbital sodium; experiment: Antagonism of glibenclamide on the cardiovascular effects in anesthetized rats; type: in vivo, Wistar rats; conditions: iv mg/kg: pinacidil 1.0, nifedipine 1.0, compound 1 0.5, means ± SE
# Procedure: The methods of biological activity experiment 1 were as follows: Male Wistar rats, weighing 280±30 g were purchased from the experimental animal center of Academy of Military Medical Sciences. Rats were anesthetized with pentobarbital sodium (45 mg/kg) by peritoneal injection. A PE50 polyethylene catheter was inserted into the left ventricle through right carotid artery for cardiac function measurement with a pressure energe exchanger, wherein the signal is put into a SMUP-PC biosignal processing system. Cardiac functional parameters such as HR, LVSP, +dp/dtmax, −dp/dtmax and Vpm were recorded. Another two PE50 polyethylene catheters were inserted into the right femoral artery and vein respectively for blood pressure measurement wherein the artery cathether was linked to a four-channel physiology recorder (RM-6000) through a MPU-0.5A Type pressure energe exchanger, which recorded SBP, DBP and MBP, while the vein catheter was used for compound administration. The methods were described by Liu Wei et al: Liu Wei, Wang Hai, Xiao Wen-Bin.
# The methods of Biological activity experiment 3 were the same as those described in the biological activity experiment 1.
# [4] = A: after administration (30 min after pinacidil, 10 min nifedipine, 15 min compound 1), glibenclamide 20 iv pretreatment
# [5] = B: before administration, glibenclamide 20 iv pretreatment ten minutes
compound,measurement,setting,value
CC(C)NCC(O)COc1ccc(COCCOC(C)C)cc1 (centres unmarked) [bisoprolol],SBP at 1 h after administration,[1],211 ± 7 mmHg
same,heart rates at 1 h,[1],283 ± 17
same,SBP at 3 h after administration,[1],240 ± 7 mmHg
same,heart rates at 3 h,[1],278 ± 16
same,SBP at 5 h after administration,[1],242 ± 4 mmHg
same,heart rates at 5 h,[1],335 ± 34
same,SBP at 9 h after administration,[1],242 ± 3 mmHg
same,heart rates at 9 h,[1],320 ± 36
same,SBP at 12 h after administration,[1],243 ± 3 mmHg
same,heart rates at 12 h,[1],341 ± 28
same,SBP at 24 h after administration,[1],242 ± 6 mmHg
same,heart rates at 24 h,[1],360 ± 7
same,SBP base value,[1],242 ± 5 mmHg
same,heart rates base value,[1],355 ± 17
C[C@H](CS)C(=O)N1CCC[C@H]1C(=O)O [captopril],SBP at 1 h after administration,[1],207 ± 9 mmHg
same,heart rates at 1 h,[1],380 ± 12
same,SBP at 3 h after administration,[1],213 ± 11 mmHg
same,heart rates at 3 h,[1],370 ± 24
same,SBP at 5 h after administration,[1],233 ± 10 mmHg
same,heart rates at 5 h,[1],366 ± 22
same,SBP at 9 h after administration,[1],242 ± 4 mmHg
same,heart rates at 9 h,[1],355 ± 12
same,SBP at 12 h after administration,[1],241 ± 5 mmHg
same,heart rates at 12 h,[1],355 ± 29
same,SBP at 24 h after administration,[1],243 ± 4 mmHg
same,heart rates at 24 h,[1],364 ± 12
same,SBP base value,[1],243 ± 4 mmHg
same,heart rates base value,[1],350 ± 17
CC(C)NC(C)C(C)C (centres unmarked) [compound 7],MBP: mean blood pressure,[2],34
same,DBP: diastolic blood pressure,[2],34
same,HR: heart rate,[2],46
same,LVSP: left ventricular systolic pressure,[2],184
same,SBP: systolic blood pressure,[2],34
same,Vpm: the physiological velocity of contractile element shorting,[2],1.08
same,−dp/dtmax: the maximal rate of the decrease of left ventricular pressure,[2],226
CNC(C)C [compound 8],MBP: mean blood pressure,[2],26
same,DBP: diastolic blood pressure,[2],24
same,HR: heart rate,[2],53
same,LVSP: left ventricular systolic pressure,[2],121
same,SBP: systolic blood pressure,[2],28
same,Vpm: the physiological velocity of contractile element shorting,[2],1.45
same,−dp/dtmax: the maximal rate of the decrease of left ventricular pressure,[2],124
CCC(C)N (centres unmarked) [compound 10],MBP: mean blood pressure,[2],4
same,DBP: diastolic blood pressure,[2],5
same,HR: heart rate,[2],20
same,LVSP: left ventricular systolic pressure,[2],21
same,SBP: systolic blood pressure,[2],2
same,Vpm: the physiological velocity of contractile element shorting,[2],0.25
same,−dp/dtmax: the maximal rate of the decrease of left ventricular pressure,[2],27
CCC(C)(C)NC [compound 11],MBP: mean blood pressure,[2],13
same,DBP: diastolic blood pressure,[2],10
same,HR: heart rate,[2],19
same,LVSP: left ventricular systolic pressure,[2],+159
same,SBP: systolic blood pressure,[2],18
same,Vpm: the physiological velocity of contractile element shorting,[2],0.1
same,−dp/dtmax: the maximal rate of the decrease of left ventricular pressure,[2],+86
CCC(C)N (centres unmarked) [compound 12],MBP: mean blood pressure,[2],24
same,DBP: diastolic blood pressure,[2],23
same,HR: heart rate,[2],39
same,LVSP: left ventricular systolic pressure,[2],112
same,SBP: systolic blood pressure,[2],25
same,Vpm: the physiological velocity of contractile element shorting,[2],0.58
same,−dp/dtmax: the maximal rate of the decrease of left ventricular pressure,[2],129
"CC(C)C(C)(C)NC(=O)[C@@H](N)Cc1c[nH]c2ccccc12 [compound 40, N-tryptophanyl-2,3-dimethyl-2-butylamine]",MBP: mean blood pressure,[2],+0.7
same,DBP: diastolic blood pressure,[2],0
same,HR: heart rate,[2],6
same,LVSP: left ventricular systolic pressure,[2],+23
same,SBP: systolic blood pressure,[2],+2
same,Vpm: the physiological velocity of contractile element shorting,[2],+0.1
same,−dp/dtmax: the maximal rate of the decrease of left ventricular pressure,[2],+6
"CC[C@H](C)[C@H](N)C(=O)NC(C)(C)C(C)C [compound 41, N-isoleucyl-2,3-dimethyl-2-butylamine]",MBP: mean blood pressure,[2],+1
same,DBP: diastolic blood pressure,[2],+1
same,HR: heart rate,[2],16
same,LVSP: left ventricular systolic pressure,[2],+4
same,SBP: systolic blood pressure,[2],+2
same,Vpm: the physiological velocity of contractile element shorting,[2],0
same,−dp/dtmax: the maximal rate of the decrease of left ventricular pressure,[2],+2
"CC(C)C[C@H](N)C(=O)NC(C)(C)C(C)C [compound 42, N-leucyl-2,3-dimethyl-2-butylamine]",MBP: mean blood pressure,[2],+2
same,DBP: diastolic blood pressure,[2],+2
same,HR: heart rate,[2],+1
same,LVSP: left ventricular systolic pressure,[2],+10
same,SBP: systolic blood pressure,[2],+2
same,Vpm: the physiological velocity of contractile element shorting,[2],+0.18
same,−dp/dtmax: the maximal rate of the decrease of left ventricular pressure,[2],+13
"CC(C)C(C)(C)NC(=O)[C@@H](N)Cc1ccccc1 [compound 43, N-phenylalanyl-2,3-dimethyl-2-butylamine]",MBP: mean blood pressure,[2],+2
same,DBP: diastolic blood pressure,[2],+1
same,HR: heart rate,[2],+10
same,LVSP: left ventricular systolic pressure,[2],+31
same,SBP: systolic blood pressure,[2],+3
same,Vpm: the physiological velocity of contractile element shorting,[2],+0.13
same,−dp/dtmax: the maximal rate of the decrease of left ventricular pressure,[2],+10
COC(=O)C1=C(C)NC(C)=C(C(=O)OC)C1c1ccccc1[N+](=O)[O-] [nifedipine],SBP at 1 h after administration,[1],186 ± 6 mmHg
same,heart rates at 1 h,[1],410 ± 11
same,SBP at 3 h after administration,[1],219 ± 12 mmHg
same,heart rates at 3 h,[1],410 ± 31
same,SBP at 5 h after administration,[1],235 ± 5 mmHg
same,heart rates at 5 h,[1],367 ± 24
same,SBP at 9 h after administration,[1],240 ± 6 mmHg
same,heart rates at 9 h,[1],365 ± 13
same,SBP at 12 h after administration,[1],242 ± 4 mmHg
same,heart rates at 12 h,[1],365 ± 16
same,SBP at 24 h after administration,[1],242 ± 4 mmHg
same,heart rates at 24 h,[1],364 ± 22
same,SBP base value,[1],242 ± 5 mmHg
same,heart rates base value,[1],352 ± 19
same,DBP,[3]; [4],62 ± 7 mmHg
same,LVSP,[3]; [4],113 ± 7 mmHg
same,MBP,[3]; [4],76 ± 8 mmHg
same,Vpm,[3]; [4],4.2 ± 0.5 /a
same,DBP,[3]; [5],95 ± 8 mmHg
same,LVSP,[3]; [5],131 ± 6 mmHg
same,MBP,[3]; [5],111 ± 7 mmHg
same,Vpm,[3]; [5],5.7 ± 0.1 /a
